# Patent publication US10822317B2, “Methods and compositions for wound healing” (QBiotics Limited, priority 2013, dated 2020)
# How the values were obtained:
# [1] = test system: severe lacerated wound on the head; assay: Veterinary case study 10, lacerated head wound of a spectacled flying fox; assay type: in vivo, Pteropus conspicillatus
# Method: Seven dogs (Canis lupus familiaris) and one tree kangaroo (Dendrolagus humholzii) with chronic, non-healing wounds that were unresponsive to current veterinary standards-of-care for these indications were treated with Compound 1 by independent veterinarians. A second tree kangaroo and a spectacled flying fox (Pteropus conspicillatus) with wounds unsuited for initial treatment with current standards-of-care were also treated with Compound 1. All cases were managed as open wounds without the use of dressings or other bandaging during the course of treatment with Compound 1 and the subsequent period of wound resolution. Unless stated in individual case studies, no concomitant medications were used over the course of treatments with Compound 1.
# Case notes: • The patient presented as a 4 month old flying fox with a deep penetrating wound on the head […] caused by entanglement in barbed wire. • In the opinion of the treating veterinarian who had extensive experience in wildlife injuries (including flying foxes) normal standard of care treatments were likely to be highly problematic in causing the right eye to lose shape and not be able to close, either due to excessive scar tissue formation associated with surgery or the extent of granulation required if wound healing dressings were applied. • Compound 1 was applied to the wound in 3 applications of 0.1 mL of 5 mg/mL gel formulation over a 28 day period (Days 1, 10 and 28). […] A very healthy granulation bed was present.
# [2] = test system: neutrophils; assay: Induction of reactive oxygen burst by neutrophils; assay type: cell-based, human; conditions: 1 ng/ml to 100 μg/ml; 15 min; DHE, flow cytometry
# Method: Neutrophils were isolated from fresh blood of a healthy human donor by lysis of a red blood cell pellet that had been obtained by Ficoll-Paque sedimentation. The neutrophils (˜4×10^6 cells/ml) were incubated with 10 μg/ml dihydroethidium (DHE) (Sigma-Aldrich) in complete culture medium at 37° C. for 15 min alongside an aliquot of unstained cells to be tested as unstained control. This incubation was followed by treatment with Compound 1 at a range of concentrations (0, 1 ng/ml, 10 ng/ml, 100 ng/ml, 1 μg/ml, 10 μg/ml, 100 μg/ml) for 15 min. The generation of reactive oxygen species following incubation was determined using a FACS Canto flow cytometer to measure fluorescence due to oxidation of DHE to the ethidium ion.
# [3] = test system: HaCaT cells; assay: HaCaT proliferation (MTT); assay type: cell-based, human; set-up: dose or concentration left out as unconfirmed; conditions: 24, 48, 120 and 168 hr; p<0.01
# Excerpt: The proliferation experiment assessed the effects of the two compounds on HaCaT proliferation (as measured by MTT) in the culture system at 4 time periods (24, 48, 120 and 168 hr).
smiles,measurement,setting,value
"CC=C(C)C(=O)OC1C(C)C2(O)C(C3OC3(CO)C(O)C3(O)C(=O)C(C)=CC32)C2C(C)(C)C12OC(=O)C(C)CC (centres unmarked) [Compound 1, 12-tigloyl-13-(2-methylbutanoyl)-6,7-epoxy-4,5,9,12,13,20-hexahydroxy-1-tigliaen-3-one]",wound status,"[1]; Case 10, flying fox, head wound, 3 x 0.1 mL gel 5 mg/mL (Days 1, 10, 28), 14 days after the initial treatment",significant tissue infill and remodeling
same,wound status,"[1]; Case 10, 55 days after the initial treatment",good tissue infill over the entire area of the original wound
same,eye function,"[1]; Case 10, by 28 days",capable of fully closing
same,production of reactive oxygen species (ROS),[2],induced the significant production of reactive oxygen species (ROS) in a dose-dependent manner
same,proliferation of HaCaT cells (MTT) vs control with no compound,[3],increasing proliferation
